# Measurements published in PMC10983001, “Development of Cytotoxic GW7604-Zeise’s Salt Conjugates as Multitarget Compounds with Selectivity for Estrogen Receptor- Positive Tumor Cells” (Journal of Medicinal Chemistry, 2024).
# Experiments:
# ERα in MCF-7 cells = test: Western blot analysis of ER downregulation; format: cell-based, human; details: MCF-7, 20 μM, 24 h
# Experimental: The exponentially growing cells were seeded at a density of 2.5 × 10^6 (MCF-7) and 3.0 × 10^6 (SKBr3) cells into 75 cm^2 flasks. The cells were incubated for 24 h in a humidified atmosphere (5% CO2/95% air) at 37 °C. For downregulation experiments, a stock solution of GW7604-Pent-PtCl3 in DMF was freshly prepared and diluted with DMEM containing 10% FCS to the desired concentration [final DMF concentration of 0.1% (v/v), final complex concentration of 20 μM]. The medium in the flasks was replaced with fresh cell culture medium containing the compound, and the flasks were incubated in a humidified atmosphere at 37 °C for 24 h. Afterward, cells were harvested (cell scratcher), and samples were lysed using a modified radio immunoprecipitation assay buffer [50 mM of TRIS (pH = 8.0), 150 mM NaCl, 0.5% NP-40, 50 mM NaF, 1 mM […], 1 mM phenylmethylsulfonyl fluoride, and protease inhibitors (EDTA-free; Roche, Basel, Switzerland)]. Total protein concentration was determined by employing the Bradford assay as described above, and samples were analyzed on the JESS ProteinSimple (Bio-Techne, Minneapolis, MN, USA) according to the manufacturer’s protocol. The following antibodies were used: GAPDH (no. 2118S, cell signaling), ERα (no. 8644S, cell signaling), and COX-2 (no. 12282, cell signaling). All primary antibodies were diluted with antibody diluents provided by ProteinSimple.
# [1] = biological target: T1, ERα ligand-binding domain (Homo sapiens, UniProt P03372); test: TR-FRET ligand binding assay, isolated LBD of ERα
# T1 construct: purchased Invitrogen
# T1 sequence (P03372 311-547 limits assumed): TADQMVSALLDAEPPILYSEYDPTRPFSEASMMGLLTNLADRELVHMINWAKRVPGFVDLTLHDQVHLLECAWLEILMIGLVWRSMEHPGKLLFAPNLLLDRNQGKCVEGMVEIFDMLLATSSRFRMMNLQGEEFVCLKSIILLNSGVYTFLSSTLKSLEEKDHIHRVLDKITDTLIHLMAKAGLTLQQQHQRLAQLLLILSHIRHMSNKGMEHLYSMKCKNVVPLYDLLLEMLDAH
# Experimental: A modified LanthaScreen TR-FRET alpha/beta assay was performed, according to the manufacturer’s protocol (Invitrogen, Carlsbad, […]), to determine the binding affinity to the isolated LBD. […] Measurements were carried out on a multimode plate reader, Tecan Spark (Tecan, Männedorf, Switzerland). Calculations and visualization were performed with GraphPad Prism 8.0 (GraphPad Software, San Diego, CA, USA).
# TSA-201 cells = test: MTT assay of metabolic activity, noncancerous TSA-201; format: cell-based, human; details: 72 h
# Experimental: The GW7604-Alk-PtCl3 complexes (with exclusion of GW7604-Prop-PtCl3) were investigated for cytotoxic effects in SKBr3 (ER-negative, COX-2-positive, Figure 6), MCF-7 (ERα-positive, COX-negative, Figure 6), and noncancerous TSA-201 (human embryonal kidney) cells at concentrations of 10–30 μM using an established MTT (3-(4,5-dimethylthiazol-2-yl)-2,5-diphenyltetrazolium bromide) assay.[60],[69]
# After incubation for 72 h, the amounts of surviving, metabolically active cells were quantified based on their ability to transform the water-soluble yellow dye MTT to a purple formazan, which can be analyzed by UV–vis spectroscopy.
# The exponentially growing cells were seeded at a density of 1750 (MCF-7), 2000 (SKBr3), and 1250 (TSA-201) cells/well into clear flat-bottom 96-well plates in triplicate. Following 24 h of incubation at 37 °C in a humidified atmosphere (5% CO2/95% air), the compounds [freshly prepared stock solutions in DMF, diluted with DMEM to the desired concentration (final DMF concentration of 0.1% (v/v))] were added to reach the indicated concentrations. After another 72 h of incubation, the cellular metabolic activity was measured employing an MTT assay. By adding predissolved MTT reagent in PBS at a final concentration of 0.5 mg/mL, the metabolic activity can be determined via an enzymatic conversion to a purple formazan salt. After 3 h, the medium was aspirated, and 200 μL of DMSO was added to dissolve the formed formazan crystals. The absorbance was measured at 570 and 690 nm (turbidity assessment) using an EnSpire plate reader (PerkinElmer, Waltham, MA, USA). Solvent-treated cells without a compound served as the positive control. Metabolic activity was calculated by the following equation [drawing 1]
# [2] = Stability in organic solutions (1H NMR); format: physicochemical; details: for amount of free ligand: DMF-d7, rt
# Experimental: Furthermore, it needs to be clarified whether organic solvent molecules are capable of ligand exchange reactions at the PtCl3 unit and form corresponding reaction/degradation products of the GW7604-Alk-PtCl3 complexes. Therefore, ^1H NMR experiments were performed with noncoordinating [e.g., acetone-d6, methanol-d4] and coordinating [e.g., acetonitrile-d3 , DMF-d7, dimethyl sulfoxide-d6 (DMSO-d6)] solvents. It should further be assessed whether the solvents are suitable for preparing stock solutions for structural characterization or in vitro testing.
# The solutions (concentrations of 4.5–5.0 mM) were stored in NMR tubes at room temperature (rt) after being purged with argon.
compound,measurement,setting,value
"CCC(=C(c1ccc(O)cc1)c1ccc(C=CC(=O)OCCC[CH]2[CH2][Pt-]2([Cl])([Cl])[Cl])cc1)c1ccccc1.[K+] (mixture of isomers) [GW7604-Pent-PtCl3, Potassium trichlorido[η^2-(pent-4-en-1-yl (E)-3-(4-((E/Z)-1-(4-hydroxyphenyl)-2-phenylbut-1-en-1-yl)phenyl)acrylate)]platinate(II)]",ER downregulation (SERD effect),ERα in MCF-7 cells,nor downregulated the ER content
same,RBA (ERα),[1]; RBA(E2) = 100%,7.29%
same,IC50,"[1]; read-out: IC50 (ERα), displacement from the LBS",4.81 nM
same,IC50,"TSA-201 cells; MTT, read-out: IC50 TSA-210",> 30000 nM
same,decrease of cell viability,"TSA-201 cells; TSA-201, 30 μM",about 20%
same,amount of free ligand,[2]; 9 days,about 33%
same,amount of free ligand,[2]; 14 days,about 40%
same,stability in DMSO-d6,"[2]; DMSO-d6, measured after 5 min / immediately after dissolution",only signals of the free GW7604-Pent ligand
same,time to complete degradation of the complex,"[2]; acetonitrile-d3, rt",≤ 23 days
same,complex that released the free ligand,"[2]; acetonitrile-d3, rt, 4 days",about 25%
same,complex that released the free ligand,"[2]; acetonitrile-d3, rt, 9 days",about 35%
